According to paper PMC12372887, “Mechanism and cellular actions of the potent AMPK inhibitor BAY-3827” (Science Advances, 2025):

What was measured:
Experiment in all cases: Kinase panel (140 human kinases)
Assay type in all cases: biochemical
NEK6 = NEK6 (Homo sapiens, UniProt Q9HC98)
Summary of the method: (§1)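 Radioactive [γ-^33P]ATP filter-binding assay, run in duplicate; compounds tested at 0.1 μM and at 1 μM (BAY-3827). ATP at 5, 20 or 50 μM, chosen at or below each enzyme's Km for ATP. Values are mean remaining kinase activity (%) with SD.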

ULK2 = ULK2 (Homo sapiens, UniProt Q8IYT8)
Summary of the method: as §1

CK1δ = CK1δ (Homo sapiens, UniProt P48730)
Summary of the method: as §1

TSSK1 = TSSK1 (Homo sapiens, UniProt Q9BXA7)
Summary of the method: as §1

IRAK1 = IRAK1 (Homo sapiens, UniProt P51617)
Summary of the method: as §1

DDR2 = DDR2 (Homo sapiens, UniProt Q16832)
Summary of the method: as §1

SGK1 = SGK1 (Homo sapiens, UniProt O00141)
Summary of the method: as §1

RIPK2 = RIPK2 (Homo sapiens, UniProt O43353)
Summary of the method: as §1

JNK3 = JNK3 (Homo sapiens, UniProt P53779)
Summary of the method: as §1

JNK1 = JNK1 (Homo sapiens, UniProt P45983)
Summary of the method: as §1

p38g MAPK = p38g MAPK (Homo sapiens, UniProt P53778)
Summary of the method: as §1

EPH-B2 = EPH-B2 (Homo sapiens, UniProt P29323)
Summary of the method: as §1

CLK2 = CLK2 (Homo sapiens, UniProt P49760)
Summary of the method: as §1

SmMLCK = SmMLCK (Homo sapiens, UniProt Q15746)
Summary of the method: as §1

TTBK1 = TTBK1 (Homo sapiens, UniProt Q5TCY1)
Summary of the method: as §1

MNK1 = MNK1 (Homo sapiens, UniProt Q9BUB5)
Summary of the method: as §1

HIPK1 = HIPK1 (Homo sapiens, UniProt Q86Z02)
Summary of the method: as §1

TBK1 = target: T1, TBK1 (Homo sapiens, UniProt Q9UHD2)
T1 sequence (Q9UHD2 1-729): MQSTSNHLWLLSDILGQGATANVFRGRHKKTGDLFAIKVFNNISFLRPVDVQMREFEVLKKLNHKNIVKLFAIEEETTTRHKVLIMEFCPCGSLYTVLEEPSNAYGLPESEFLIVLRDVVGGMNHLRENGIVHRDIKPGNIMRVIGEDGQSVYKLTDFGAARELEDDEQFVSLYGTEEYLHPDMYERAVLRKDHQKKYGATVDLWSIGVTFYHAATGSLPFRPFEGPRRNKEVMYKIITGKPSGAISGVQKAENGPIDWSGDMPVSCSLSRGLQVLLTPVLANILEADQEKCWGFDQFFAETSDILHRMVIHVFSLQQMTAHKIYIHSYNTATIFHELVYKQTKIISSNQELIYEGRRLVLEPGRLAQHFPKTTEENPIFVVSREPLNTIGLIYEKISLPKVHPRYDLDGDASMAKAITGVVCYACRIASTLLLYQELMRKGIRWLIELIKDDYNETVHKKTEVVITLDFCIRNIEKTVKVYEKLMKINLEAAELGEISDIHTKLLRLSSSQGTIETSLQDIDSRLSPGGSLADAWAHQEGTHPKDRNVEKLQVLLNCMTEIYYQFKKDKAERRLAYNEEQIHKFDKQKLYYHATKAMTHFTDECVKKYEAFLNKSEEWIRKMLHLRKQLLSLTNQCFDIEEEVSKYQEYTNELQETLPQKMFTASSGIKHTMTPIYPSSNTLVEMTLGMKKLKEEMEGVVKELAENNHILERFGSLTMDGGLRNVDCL
Summary of the method: as §1

MLK1 = MLK1 (Homo sapiens, UniProt P80192)
Summary of the method: as §1

CHK2 = CHK2 (Homo sapiens, UniProt O96017)
Summary of the method: as §1

TGFBR1 = TGFBR1 (Homo sapiens, UniProt P36897)
Summary of the method: as §1

PAK6 = PAK6 (Homo sapiens, UniProt Q9NQU5)
Summary of the method: as §1

CAMKKb = CAMKKb (Homo sapiens, UniProt Q96RR4)
Summary of the method: as §1

CDK9-Cyclin T1 = CDK9-Cyclin T1 (Homo sapiens, UniProt P50750)
Summary of the method: as §1

MAPKAP-K3 = MAPKAP-K3 (Homo sapiens, UniProt Q16644)
Summary of the method: as §1

TIE2 = TIE2 (Homo sapiens, UniProt Q02763)
Summary of the method: as §1

WNK1 = WNK1 (Homo sapiens, UniProt Q9H4A3)
Summary of the method: as §1

STK33 = STK33 (Homo sapiens, UniProt Q9BYT3)
Summary of the method: as §1

MST3 = MST3 (Homo sapiens, UniProt Q9Y6E0)
Summary of the method: as §1

PIM1 = PIM1 (Homo sapiens, UniProt P11309)
Summary of the method: as §1

PAK4 = PAK4 (Homo sapiens, UniProt O96013)
Summary of the method: as §1

[1] = 1 μM, cross-referenced with screen data of ref 37, read-out: activity remaining after treatment

Sequence of IRAK1 (P51617 whole entry): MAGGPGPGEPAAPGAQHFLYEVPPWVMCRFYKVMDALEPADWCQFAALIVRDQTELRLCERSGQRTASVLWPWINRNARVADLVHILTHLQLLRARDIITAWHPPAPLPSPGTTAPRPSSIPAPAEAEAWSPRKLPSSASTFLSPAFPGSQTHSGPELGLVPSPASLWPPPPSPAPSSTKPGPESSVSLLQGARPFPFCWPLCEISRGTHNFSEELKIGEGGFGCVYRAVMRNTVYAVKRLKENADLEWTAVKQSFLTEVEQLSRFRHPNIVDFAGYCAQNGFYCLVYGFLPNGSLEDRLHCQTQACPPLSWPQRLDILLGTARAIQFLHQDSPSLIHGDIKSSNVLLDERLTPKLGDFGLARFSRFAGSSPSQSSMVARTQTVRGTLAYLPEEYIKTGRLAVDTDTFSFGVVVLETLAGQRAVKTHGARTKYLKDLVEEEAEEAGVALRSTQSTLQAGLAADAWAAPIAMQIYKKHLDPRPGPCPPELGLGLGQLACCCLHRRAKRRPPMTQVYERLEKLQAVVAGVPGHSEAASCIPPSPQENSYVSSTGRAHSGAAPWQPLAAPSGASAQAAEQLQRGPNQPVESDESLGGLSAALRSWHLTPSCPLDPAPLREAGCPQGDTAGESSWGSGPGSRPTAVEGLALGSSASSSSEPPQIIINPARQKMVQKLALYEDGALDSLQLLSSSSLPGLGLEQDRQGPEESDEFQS
Sequence of TTBK1 (Q5TCY1 whole entry): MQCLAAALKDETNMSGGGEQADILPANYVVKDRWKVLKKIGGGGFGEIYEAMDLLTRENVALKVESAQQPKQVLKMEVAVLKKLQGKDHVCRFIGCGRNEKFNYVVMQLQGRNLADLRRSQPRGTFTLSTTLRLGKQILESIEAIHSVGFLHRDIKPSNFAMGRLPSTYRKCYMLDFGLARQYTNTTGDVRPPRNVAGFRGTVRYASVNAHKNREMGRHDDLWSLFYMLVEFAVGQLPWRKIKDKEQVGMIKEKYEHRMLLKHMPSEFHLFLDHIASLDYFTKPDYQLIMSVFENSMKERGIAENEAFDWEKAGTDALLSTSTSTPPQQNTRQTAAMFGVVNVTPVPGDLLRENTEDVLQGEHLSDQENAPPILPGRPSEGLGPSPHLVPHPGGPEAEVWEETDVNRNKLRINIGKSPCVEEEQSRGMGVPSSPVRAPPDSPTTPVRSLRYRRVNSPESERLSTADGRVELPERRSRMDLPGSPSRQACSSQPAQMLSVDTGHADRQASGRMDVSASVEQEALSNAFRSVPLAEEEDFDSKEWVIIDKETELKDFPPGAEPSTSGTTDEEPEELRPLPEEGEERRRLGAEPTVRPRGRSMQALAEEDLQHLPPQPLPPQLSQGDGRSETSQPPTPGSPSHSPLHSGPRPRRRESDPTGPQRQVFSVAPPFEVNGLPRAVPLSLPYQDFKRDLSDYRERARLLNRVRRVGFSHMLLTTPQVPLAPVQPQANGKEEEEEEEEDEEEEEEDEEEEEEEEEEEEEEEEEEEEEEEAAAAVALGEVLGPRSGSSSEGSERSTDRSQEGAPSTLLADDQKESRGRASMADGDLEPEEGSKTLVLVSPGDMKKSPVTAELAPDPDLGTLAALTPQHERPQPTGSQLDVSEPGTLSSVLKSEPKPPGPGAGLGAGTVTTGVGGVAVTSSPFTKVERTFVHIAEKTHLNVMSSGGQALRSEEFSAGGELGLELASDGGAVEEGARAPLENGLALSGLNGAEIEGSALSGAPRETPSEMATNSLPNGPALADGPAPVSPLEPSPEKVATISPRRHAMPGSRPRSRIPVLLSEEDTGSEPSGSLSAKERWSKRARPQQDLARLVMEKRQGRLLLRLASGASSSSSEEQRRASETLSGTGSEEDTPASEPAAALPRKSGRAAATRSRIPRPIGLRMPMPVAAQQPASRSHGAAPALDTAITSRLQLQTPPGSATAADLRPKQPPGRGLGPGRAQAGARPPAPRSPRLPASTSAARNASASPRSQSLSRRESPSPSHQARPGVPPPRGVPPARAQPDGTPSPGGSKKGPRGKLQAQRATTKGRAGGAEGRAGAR
Sequence of WNK1 (Q9H4A3 whole entry): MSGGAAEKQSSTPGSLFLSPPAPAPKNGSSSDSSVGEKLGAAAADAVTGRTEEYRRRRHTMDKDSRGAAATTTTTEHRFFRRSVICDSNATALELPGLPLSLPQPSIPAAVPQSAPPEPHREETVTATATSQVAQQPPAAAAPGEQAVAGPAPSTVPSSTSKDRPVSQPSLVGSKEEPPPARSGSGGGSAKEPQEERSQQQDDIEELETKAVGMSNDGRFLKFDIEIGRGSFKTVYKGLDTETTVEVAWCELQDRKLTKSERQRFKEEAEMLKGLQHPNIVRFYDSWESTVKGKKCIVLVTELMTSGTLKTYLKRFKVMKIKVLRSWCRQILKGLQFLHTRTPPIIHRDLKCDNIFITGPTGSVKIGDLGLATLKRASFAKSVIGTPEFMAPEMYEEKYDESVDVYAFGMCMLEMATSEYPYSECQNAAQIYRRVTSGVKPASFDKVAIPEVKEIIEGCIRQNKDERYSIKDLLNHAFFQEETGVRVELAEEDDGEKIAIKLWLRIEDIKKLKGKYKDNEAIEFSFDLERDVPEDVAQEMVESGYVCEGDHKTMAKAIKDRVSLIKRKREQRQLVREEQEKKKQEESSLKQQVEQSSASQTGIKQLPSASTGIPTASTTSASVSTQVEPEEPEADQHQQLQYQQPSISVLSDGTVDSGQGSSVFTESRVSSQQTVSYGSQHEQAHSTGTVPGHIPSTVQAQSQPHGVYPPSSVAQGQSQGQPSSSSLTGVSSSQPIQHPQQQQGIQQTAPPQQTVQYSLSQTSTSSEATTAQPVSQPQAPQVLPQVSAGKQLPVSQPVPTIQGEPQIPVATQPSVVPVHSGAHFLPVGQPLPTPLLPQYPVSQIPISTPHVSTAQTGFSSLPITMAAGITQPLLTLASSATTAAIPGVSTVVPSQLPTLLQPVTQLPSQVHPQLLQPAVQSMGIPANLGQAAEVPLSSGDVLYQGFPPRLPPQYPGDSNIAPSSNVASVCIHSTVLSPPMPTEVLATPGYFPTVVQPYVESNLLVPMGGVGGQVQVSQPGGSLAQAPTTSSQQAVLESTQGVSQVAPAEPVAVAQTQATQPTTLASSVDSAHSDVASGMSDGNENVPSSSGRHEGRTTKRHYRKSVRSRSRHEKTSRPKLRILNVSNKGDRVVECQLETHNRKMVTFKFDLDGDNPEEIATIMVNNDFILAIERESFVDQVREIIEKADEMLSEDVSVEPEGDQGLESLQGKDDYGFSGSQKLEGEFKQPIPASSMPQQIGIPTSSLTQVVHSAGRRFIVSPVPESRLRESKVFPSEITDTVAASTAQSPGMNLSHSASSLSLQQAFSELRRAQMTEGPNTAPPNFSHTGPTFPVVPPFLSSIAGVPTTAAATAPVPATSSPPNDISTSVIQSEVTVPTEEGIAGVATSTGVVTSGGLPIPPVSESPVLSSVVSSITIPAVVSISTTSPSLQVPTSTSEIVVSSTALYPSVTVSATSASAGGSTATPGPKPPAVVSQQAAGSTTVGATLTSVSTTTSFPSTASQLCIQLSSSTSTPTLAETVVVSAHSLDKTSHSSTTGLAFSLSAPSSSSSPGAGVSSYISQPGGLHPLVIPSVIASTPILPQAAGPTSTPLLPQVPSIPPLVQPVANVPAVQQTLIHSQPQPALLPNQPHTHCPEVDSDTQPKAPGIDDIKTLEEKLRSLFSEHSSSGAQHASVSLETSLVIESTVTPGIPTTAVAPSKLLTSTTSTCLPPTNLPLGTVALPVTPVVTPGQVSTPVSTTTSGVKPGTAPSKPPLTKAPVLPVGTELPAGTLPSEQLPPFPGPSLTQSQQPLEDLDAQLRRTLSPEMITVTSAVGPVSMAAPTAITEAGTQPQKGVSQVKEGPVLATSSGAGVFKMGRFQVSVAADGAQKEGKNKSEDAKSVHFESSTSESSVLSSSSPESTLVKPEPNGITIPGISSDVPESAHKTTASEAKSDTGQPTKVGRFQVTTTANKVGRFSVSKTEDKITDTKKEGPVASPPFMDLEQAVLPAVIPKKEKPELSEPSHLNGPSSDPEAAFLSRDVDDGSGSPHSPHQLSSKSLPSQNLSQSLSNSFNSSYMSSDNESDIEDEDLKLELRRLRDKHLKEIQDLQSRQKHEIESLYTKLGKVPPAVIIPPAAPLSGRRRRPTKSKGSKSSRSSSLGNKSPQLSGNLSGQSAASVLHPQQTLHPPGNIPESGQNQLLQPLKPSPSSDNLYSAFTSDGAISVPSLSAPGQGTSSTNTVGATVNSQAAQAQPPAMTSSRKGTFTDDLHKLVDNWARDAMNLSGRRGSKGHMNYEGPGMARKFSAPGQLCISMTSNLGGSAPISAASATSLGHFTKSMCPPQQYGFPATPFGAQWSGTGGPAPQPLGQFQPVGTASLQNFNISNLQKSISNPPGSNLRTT
Sequence of CK1δ (P48730 whole entry): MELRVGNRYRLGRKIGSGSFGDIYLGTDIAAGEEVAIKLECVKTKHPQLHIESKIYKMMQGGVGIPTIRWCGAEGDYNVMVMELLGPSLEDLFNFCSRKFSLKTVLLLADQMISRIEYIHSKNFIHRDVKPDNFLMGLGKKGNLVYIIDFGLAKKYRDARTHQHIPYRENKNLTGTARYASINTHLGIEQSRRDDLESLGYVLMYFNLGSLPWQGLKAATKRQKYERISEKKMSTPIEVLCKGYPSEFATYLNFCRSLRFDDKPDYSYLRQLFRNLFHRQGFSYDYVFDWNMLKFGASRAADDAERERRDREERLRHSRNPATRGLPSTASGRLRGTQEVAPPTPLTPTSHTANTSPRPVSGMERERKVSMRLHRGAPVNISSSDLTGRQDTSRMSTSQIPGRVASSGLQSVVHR

Row | Compound | remaining activity at 0.1 µM (NEK6) [%] | remaining activity at 0.1 µM (ULK2) [%] | remaining activity at 0.1 µM (CK1δ) [%] | remaining activity at 0.1 µM (TSSK1) [%] | inhibition at 0.1 µM (IRAK1) [%] | remaining activity at 0.1 µM (DDR2) [%] | remaining activity at 0.1 µM (SGK1) [%] | remaining activity at 0.1 µM (RIPK2) [%] | remaining activity at 0.1 µM (JNK3) [%] | remaining activity at 0.1 µM (JNK1) [%] | remaining activity at 0.1 µM (p38g MAPK) [%] | remaining activity at 0.1 µM (EPH-B2) [%] | remaining activity at 0.1 µM (CLK2) [%] | remaining activity at 0.1 µM (SmMLCK) [%] | remaining activity at 0.1 µM (TTBK1) [%] | remaining activity at 0.1 µM (MNK1) [%] | remaining activity at 0.1 µM (HIPK1) [%] | remaining activity at 0.1 µM (TBK1) [%] | remaining activity at 0.1 µM (MLK1) [%] | remaining activity at 0.1 µM (CHK2) [%] | other results
1 | CCc1ccccc1C(=O)Nc1n[nH]c2c(C)c(F)c(C3C(C#N)=C(C)N(C)C(C)=C3C#N)cc12 [BAY-3827, N-[5-(3,5-dicyano-1,2,6-trimethyl-4H-pyridin-4-yl)-6-fluoro-7-methyl-1H-indazol-3-yl]-2-ethylbenzamide] | 102 | 96 | 103 | 88 | ~60 | 80 | 97 | 102 | 88 | 94 | 90 | 98 | 87 | 76 | 101 | 126 | 94 | ≤ 50 | 89 | 93 | remaining activity at 0.1 µM (IRAK1): ≤ 50%; remaining activity at 1 µM (TTBK1; [1]): ≥ 99%; inhibition at 0.1 µM (TBK1): ~60%; remaining activity at 0.1 µM (TGFBR1): 86%; remaining activity at 0.1 µM (PAK6): 106%; remaining activity at 0.1 µM (CAMKKb): 97%; remaining activity at 0.1 µM (CDK9-Cyclin T1): 97%; remaining activity at 0.1 µM (MAPKAP-K3): 101%; remaining activity at 0.1 µM (TIE2): 69%; remaining activity at 0.1 µM (WNK1): 101%; remaining activity at 1 µM (WNK1; [1]): ≥ 99%; remaining activity at 0.1 µM (STK33): 94%; remaining activity at 0.1 µM (MST3): ≤ 50%; remaining activity at 0.1 µM (PIM1): 86%; remaining activity at 0.1 µM (PAK4): 80%
2 | CC1=C(C#N)C(c2ccc3c(c2)c(NC(=O)c2ccccc2C)nn3C)C(C#N)=C(C)N1 [BAY-974, N-[5-(3,5-dicyano-2,6-dimethyl-1,4-dihydropyridin-4-yl)-1-methylindazol-3-yl]-2-methylbenzamide] | 85 | 60 | 116 | 55 | 55 to 90 | 89 | 127 | 108 | 104 | 106 | 95 | 82 | 93 | 80 | 104 | 100 | 91 | 91 | 90 | 87 | remaining activity at 0.1 µM (TGFBR1): 113%; remaining activity at 0.1 µM (PAK6): 102%; remaining activity at 0.1 µM (CAMKKb): 107%; remaining activity at 0.1 µM (CDK9-Cyclin T1): 114%; remaining activity at 0.1 µM (MAPKAP-K3): 81%; remaining activity at 0.1 µM (TIE2): 103%; remaining activity at 0.1 µM (WNK1): 117%; remaining activity at 0.1 µM (STK33): 82%; remaining activity at 0.1 µM (MST3): 89%; remaining activity at 0.1 µM (PIM1): 82%; remaining activity at 0.1 µM (PAK4): 96%
